Data published in patent US11292758B2, “Compounds and methods for delivery of prostacyclin analogs” (United Therapeutics Corporation, priority 2003, dated 2022).
Where two headings read alike, the source gives them in different places.

Key:
[1] = in vivo; conditions: male, Sprague-Dawley, rat
[2] = test system: Caco-2 cell monolayers; test: Permeability across Caco-2 cell monolayers; type: in vitro ADME
Description: (§1) There are two major barriers to deliver treprostinil in the circulatory system. One of these barriers is that treprostinil undergoes a large first pass effect. […] The permeability of treprostinil has been measured across Caco-2 cell monolayers. […] It is believed that the p-glycoprotein efflux pump prevents certain pharmaceutical compounds from traversing the mucosal cells of the small intestine and, therefore, from being absorbed into systemic circulation.

[3] = First pass effect on circulating through the liver; type: in vivo
Description: as §1

[4] = rat, in vivo
[5] = Bioavailability and pharmacokinetics of treprostinil in rats after intravenous, intraportal vein, intraduodenal, intracolonic and oral dosing (Example 1); conditions: rats dosed via the portal vein, 1 mg/kg, before the thirty-minute sample
[6] = Skin contact irritation testing
Description: In contrast, some of the compounds disclosed herein, generally as prodrugs of treprostinil, are not irritating to the skin. Accordingly, the present compounds are well suited for topical or transdermal administration.

[7] = 1 mg/kg, Average (n = 3) plasma concentrations
[8] = 1 mg/kg, Average plasma concentrations
[9] = iv, 1 mg/kg, Average (n = 3) plasma concentrations
[10] = po, 1 mg/kg, Average (n = 3) plasma concentrations
[11] = male, Sprague-Dawley, iv, 1 mg/kg

## CCCCC[C@H](O)CC[C@@H]1[C@H]2Cc3cccc(OCC(=O)O)c3C[C@H]2C[C@H]1O [Treprostinil, treprostinil]
[1]; [7]
  concentration at 360 min: 0.89 ng/mL
  concentration at 480 min: 0.9 ng/mL
[1]; [8]
  concentration at 2 min: 302 ng/mL
  concentration at 5 min: 97.4 ng/mL
  concentration at 15 min: 48 ng/mL
  concentration at 30 min: 21.9 ng/mL
  concentration at 60 min: 11.1 ng/mL
  concentration at 120 min: 3.87 ng/mL
  concentration at 240 min: 2.51 ng/mL
  concentration at 360 min: 4.95 ng/mL
  concentration at 480 min: 5.14 ng/mL
[1]
  Tmax: ≤ 5 min
[1]; iv, 1 mg/kg
  Vd: 1.98 L/kg
  clearance: 88.5 mL/min/kg
  Cmax: 2120 ng/mL
  Tmax: 0 min
[1]; [9]
  concentration at 2 min: 1050 ng/mL
  concentration at 5 min: 364 ng/mL
  concentration at 15 min: 131 ng/mL
  concentration at 30 min: 55.6 ng/mL
  concentration at 60 min: 14.4 ng/mL
  concentration at 120 min: 4.45 ng/mL
  concentration at 240 min: 1.09 ng/mL
  concentration at 360 min: 0.5 ng/mL
  concentration at 480 min: 0.3 ng/mL
[1]; iv, 1 mg/kg, Average AUC480 min
  AUC(0-t): 188 ng·h/mL
[1]; iv, 1 mg/kg, Individual AUC480 min
  AUC(0-t): 172 ng·h/mL
[1]; iv, 1 mg/kg, T½ (terminal plasma half-life)
  half-life: 94 min
[1]; iv, 1 mg/kg, half-life of the distribution phase
  half-life: 10.3 min
[1]; [10]
  concentration at 5 min: 4.52 ng/mL
  concentration at 15 min: 2.9 ng/mL
  concentration at 30 min: 3.67 ng/mL
  concentration at 60 min: 2.06 ng/mL
  concentration at 120 min: 4.52 ng/mL
  concentration at 240 min: 1.82 ng/mL
  concentration at 360 min: 0.9 ng/mL
  concentration at 480 min: 0.96 ng/mL
[1]; po, 1 mg/kg, Average AUC480 min
  AUC(0-t): 17.3 ng·h/mL
[1]; po, 1 mg/kg, Average Bioavailability (%) ± SD
  bioavailability: 9.2 ± 1.4%
[1]; po, 1 mg/kg
  Cmax: 5 ng/mL
  Tmax: 5 min
[1]; po, 1 mg/kg, Individual AUC480 min
  AUC(0-t): 16.6 ng·h/mL
[1]; po, 1 mg/kg, Individual Bioavailability
  bioavailability: 8.9%
[2]
  apical to basal transport rate: 1.39e-06 cm/s
  basal to apical transport rate: 1.23e-05 cm/s
[3]
  absorbed dose left after first pass: about 40%
  treprostinil plasma levels metabolized upon first circulating through the liver: about 60%
[4]; male, Sprague-Dawley
  compound absorbed in the intestine: approximately 60%
[4]; male, Sprague-Dawley, 1 mg/kg
  Tmax: 2 min
[4]; male, Sprague-Dawley, 1 mg/kg, 360 min
  Average (n = 3) plasma concentrations: 0.06^λ ng/mL
[4]; male, Sprague-Dawley, 1 mg/kg, 480 min
  Average (n = 3) plasma concentrations: 0.20^λ ng/mL
[4]; [11]
  CLs: 88.54 mL/min/kg
  Volume of Distribution: 1.98 L/kg
[4]; male, Sprague-Dawley, iv, 60 min
  distribution and elimination of the compound that occurs by 60 minutes post-dosing: over 90%
[4]; iv, 1 mg/kg
  Clinical observations: extreme lethargy
[5]
  Mortality: One rat (#123) expired
[6]
  skin irritation upon skin contact: can be irritating upon skin contact
